Entries after “also recorded” stand apart in the source; their conditions may differ.
What was measured:
[1] = particle size distribution by dynamic light scattering (Zetasizer Nano ZS); assay type: physicochemical
Protocol: The particle size distribution of the prepared emulsion was measured by dynamic light scattering using Zetasizer Nano ZS. The measurement conditions were 1 mM emulsion (40 μL) at 25° C. As a result, in all compositions, the volume median diameter was not more than 100 nm and, when a linear head was used (i.e., the formula (I) wherein X^a and X^b are each X^1), the particle size was not more than 50 nm. The drug recovery rate was not less than 85% (FIG. 1, Table 2).
EPC and Cholesterol were mixed to achieve 1000 nmol and a PEG lipid was added. Chloroform in an amount equal to that of the lipid ethanol solution was added and the mixture was dried under a nitrogen blow. PBS (1 mL) was added to the lipid membrane after drying and the mixture was stood for 10 min and sonicated by a bath-type sonicator for 3 min to give a particle suspension. The particle size distribution of the prepared particles was measured by dynamic light scattering in the same manner as in Example 1.
The particle size distribution of the produced emulsion solution was measured by dynamic light scattering similarly to Example 1. As a result, when DOPC was used, the volume median diameter was near 40 nm irrespective of pH.
An ethanol solution containing 500 nmol as a total of cationic B-2, DOPE, and Cholesterol was prepared, and a PEG lipid was added in the above-mentioned amount. Ethanol was added to make the total amount 200 μL, and the mixture was stood at ice temperature for 15 min. A similarly ice-cooled malic acid buffer (20 mM, pH 3.0, 0-1000 mM NaCl) (200 μL) was mixed within 3 sec under vortex. PBS (NISSUI) (3600 μL) was immediately added thereto. The mixture was subjected to ultrafiltration using Amicon Ultra (Millipore). The centrifugation conditions were 1000 G, 25° C. An operation including addition of 3200 μL of PBS after centrifugation for 10 min was repeated twice and the sample was concentrated to about 500 μL. The concentrate was diluted with PBS to a mass of 1000 mg to give a 0.5 mM (lipid concentration) emulsion. The particle size distribution of the produced emulsion solution was measured by dynamic light scattering similarly to Example 1.
The volume median diameter and the surface potential were measured using the dynamic light scattering (Zetasizer Nano; Malvern) in the same manner as in Example 1.
The average particle size of the produced particles was measured in the same manner as in Example 1 and the results are shown in Table 7.

[2] = retentivity in blood test, 4 MU-Pal versus 4 MU-CHEMS; assay type: in vivo; settings: B-2:DOPC:Chol emulsion, tail vein, ICR mouse; comparison with 4 MU-Pal
Protocol: To a lipid mixture of B-2:DOPC:Chol=3:4:3 were added DSG-PEG2000 (9 mol %) and 30 mol % 4 MU-Pal, and 1 mol % fluorescent dye DiD was added to give an emulsion by a method similar to that in Example 1.
To a lipid mixture of B-2:DOPC:Chol:4 MU-CHEMS=3:4:1.5:1.5 was added DSG-PEG2000 (15 mol %), fluorescent dye DiD (1 mol %) was further added, and an emulsion was prepared by a method similar to that in Example 1.
The concentration of the particle suspension was set to 4 mM as a lipid concentration (B-2+DOPC+Chol). The suspension (250 μL) was administered to ICR mouse J 4-week-old from the tail vein. Blood (25 μL) was collected at each time point and mixed with pH 10.4 borate buffer (275 μL), ethanol (150 μL), 10% SDS (50 μL). 4 MU-Pal or 4 MU-CHEMS was hydrolyzed by incubation at 60° C. for 30 min. The fluorescence of the resulting 4-methylumbelliferone, and DiD modified by particles was each measured by a plate reader and the residual amount in the blood was examined from the analytical curve.

[3] = drug release and reduction responsibility test (dialysis, with or without 10 mM glutathione); assay type: physicochemical
Protocol: Using B-2, B-2-5, O-C3M, B-2-3, TS-P4C2 or L-PZ4C2 as a cationic lipid, an O/W type emulsion having a composition of cationic lipid:DOPC:Cholesterol=3:4:3 (molar ratio) was prepared. In this preparation, DSG-PEG2000 (9 mol %) was used as a PEG lipid. As a drug model molecule, 4-Methylumbelliferon Palmitate (30 mol %) was used and fluorescent probe DiD (1 mol %) was used for calibration by particles concentration.
An ethanol solution containing 1000 nmol as a total of cationic lipid, DOPE, and Cholesterol was prepared, and PEG lipid, drug model molecule and fluorescent probe were added in the above-mentioned amounts. Ethanol was added to make the total amount 400 μL, and the mixture was stood at 37° C. for 15 min. A similarly heated malic acid buffer (20 mM, pH 3.0, 30 mM NaCl) (400 μL) was mixed within 3 sec under vortex. PBS (NISSUI) (3200 μL) was immediately added thereto. The mixture was subjected to ultrafiltration using Amicon Ultra (Millipore) The centrifugation conditions were 1000 g, 25° C. […]
400 μL of the prepared emulsion was placed in a dialysis membrane (Spectrum Lab) having a molecular weight cutoff of 1000 and dialyzed against 40 mL of PBS at 37° C. […] After penetration and stirring at 60° C. for 30 min, the amounts of 4MU and DiD in the solution were quantified by fluorescence measurement (4MU: Ex385, Em450 DiD: Ex645, Em665). […]

[4] = organ accumulation of particles in 4T1 tumor-bearing mouse (IVIS); assay type: in vivo, BALB/c mouse; settings: intravenous, lipid 800 nmol, 24 hr after administration, DiR fluorescence
Protocol: As cationic lipid, B-2 and B-2-5 were used. As conventional lipid, DODAP and EPC were used. The preparation methods of the O/W type emulsion and particle suspensions (DODAP, EPC) followed the methods described in Example 1 and Comparative Example 1. To visualize pharmacokinetics of the oil droplets constituting the O/W type emulsion or particle suspension (DODAP, EPC), fluorescent dye DiR was added by 0.2 mol % of the lipid. The particle concentration was adjusted to 4 mM as a lipid concentration.
As a tumor-bearing mouse, 4T1 cell (mouse breast cancer) was used. 1×10^6 4T1 cells were subcutaneously transplanted to the right flank of BALB/c mouse (♀, 4-week-old). At 7 days from the transplantation, 200 μL (lipid 800 nmol) of the O/W type emulsion or particle suspension (DODAP, EPC) containing fluorescence-modified particles was intravenously administered. At 24 hr after administration, […] was performed, and the spleen, liver and tumor were collected and image was obtained by IVIS. The average fluorescence intensity was calculated using Living Image Software.
As a cationic lipid, B-2 was used. An O/W type emulsion was prepared according to Example 3. In this preparation, 4-Methylumbelliferon (10 mol %) was used as a model drug and DMG-PEG2000 (10 mol %) and DSG-PEG2000 (2.5 mol %) were used as PEG lipids, and a 4.0 mM (based on lipid concentration) emulsion was prepared. To visualize pharmacokinetics of the oil droplets constituting the O/W type emulsion or particle suspension (DODAP, EPC), fluorescent dye DiR was added by 0.2 mol % of the lipid. As the salt (NaCl) concentration during preparation of particles, 30 mM, 150 mM, 750 mM were selected and taken as “Small”, “Medium”, “Large”, respectively. The particle concentration was adjusted to 4 mM as a lipid concentration.
The organ distribution in a tumor-bearing mouse was evaluated in the same manner as in Experimental Example 1. As a result, accumulation in the spleen, liver decreased as the particle size became smaller.

[5] = DexPal-carrying rate by high performance liquid chromatography; assay type: physicochemical; settings: DexPal-carrying LNP
Protocol: 1 mM DexPal-carrying LNP (50 μL) was mixed with phosphate buffer (pH 7.4) (50 μL), and 50 μL thereof was mixed with MeOH (50 μL). 0.1% Trifluoroacetic acid/acetonitrile (400 μL) was added, and DexPal was detected by high performance liquid chromatography (column: InertSustain C18, 5 μm, 4.6 mm×250 mm (GL Sciences Inc.), mobile phase: MeOH:0.1% trifluoroacetic acid/acetonitrile=70:30, flow rate: 1 mL/min, detector: 240 nm, injection volume: 200 μL). As the analytical curve of Dex-Pal, 0.5 mM, 0.25 mM, 0.125 mM, 0.0625 mM, DexPalethanol solution (50 μL) was mixed with MeOH (50 μL), and 50 μL thereof was mixed with phosphate buffer (pH 7.4) (50 μL). 0.1% Trifluoroacetic acid/acetonitrile (400 μL) was added, and DexPal was detected by a method similar to that for DexPal-carrying LNP. The peak area and concentration were plotted, and the DexPal concentration and carrying rate in the DexPal-carrying LNP were calculated.

[6] = O/W emulsion cationic lipid:DOPE:Cholesterol=3:4:3, 4-Methylumbelliferon 10 mol %, DMG-PEG2000 10 mol %, DSG-PEG2000 2.5 mol %
[7] = O/W emulsion cationic lipid:DOPE:Cholesterol=3:4:3, 4-Methylumbelliferon 10 mol %, DMG-PEG2000 10 mol %, DSG-PEG2000 2.5 mol %, 1 mM, 25° C.
[8] = DexPal-carrying particles (lipid, DOPC, Chol, DMG-PEG2000, DSG-PEG2000, DexPal)

Compound CCCCCCCC/C=C\CCCCCCCC(=O)OC[C@H](COP(=O)(O)OCCN)OC(=O)CCCCCCC/C=C\CCCCCCCC [DOPE, dioleoylphosphatidylethanolamine] has a volume median diameter ([1]; B-2:helper lipid:Cholesterol=3:4:3, 15 mol % DMG-PEG2000, malic acid buffer pH 4.0) of 90.2 nm, a PdI ([1]; B-2:helper lipid:Cholesterol=3:4:3, 15 mol % DMG-PEG2000, pH 3.0) of 0.191 and a PdI ([1]; B-2:helper lipid:Cholesterol=3:4:3, 15 mol % DMG-PEG2000, pH 4.0) of 0.078.

Compound CCCCC/C=C\C/C=C\CCCCCCCC(=O)OCCN1CCN(CCSSCCN2CCN(CCOC(=O)CCCCCCC/C=C\C/C=C\CCCCC)CC2)CC1 [L-PZ4C2] has a PdI [1, 6] of 0.092 and a volume median diameter [1, 7] of 75.8 nm.

In the case of Cc1cc(=O)oc2cc(OC(=O)CCC(=O)OC3CCC4(C)C(=CCC5C4CCC4(C)C(C(C)CCCC(C)C)CCC54)C3)ccc12 (stereo not drawn) [4 MU-CHEMS, 4-methylumbelliferone cholesterol hemisuccinate], the retentivity in blood [2] is reported as “stayed longer in the blood than 4 MU-Pal”.

With CCCCCCCC/C=C\CCCCCCCC(=O)OCC(CN(C)C)OC(=O)CCCCCCC/C=C\CCCCCCCC (stereo not drawn) [DODAP] the “release of drug model substance” value ([3]; conventional lipid particle suspension, 24 hr, under any conditions (reduction or nonreduction)) was “hardly released”, the responsiveness under reduction ([3]; conventional lipid:DOPC:Cholesterol=3:4:3 particle suspension, 4-Methylumbelliferon Palmitate 30 mol %) was “not found” and the transfer into tumor [4] was “transfer well into tumor”. For the same compound, the PdI ([1]; DexPal-carrying particles) was 0.15 ± 0.01, the volume median diameter [1, 8] was 39.1 ± 2.2 nm·days and the PdI ([1]; particle suspension of conventional lipid (DODAP:DOPE:Cholesterol=3:4:3 or EPC:Cholesterol=3:2)) was 0.418. For the same compound, the volume median diameter ([1]; particle suspension of conventional lipid (DODAP:DOPE:Cholesterol=3:4:3 or EPC:Cholesterol=3:2), 4-Methylumbelliferon 10 mol %) was 34.8 nm and the carrying rate [5] was 89.6 ± 2.9%.

CCCCCCCC/C=C\CCCCCCCC(=O)OCCCN(C)CCSSCCN(C)CCCOC(=O)CCCCCCC/C=C\CCCCCCCC [O-C3M] showed a PdI [1, 6] of 0.228 and a volume median diameter [1, 7] of 38.4 nm.

In the case of Cc1c(C)c2c(c(C)c1OC(=O)CCC(=O)OCCCN(C)CCSSCCN(C)CCCOC(=O)CCC(=O)Oc1c(C)c(C)c3c(c1C)CCC(C)(CCCC(C)CCCC(C)CCCC(C)C)O3)CCC(C)(CCCC(C)CCCC(C)CCCC(C)C)O2 (stereo not drawn) [B-2-5], the “accumulation in the liver” value [4] is reported as “superior in accumulation in the liver; also recorded: found”, the PdI [1, 6] is reported as 0.164 and the volume median diameter [1, 7] is reported as 41.2 nm.

In the case of CCCCCCCCCCCCCC(=O)OCCCN(C)CCSSCCN(C)CCCOC(=O)CCCCCCCCCCCCC [B-2], the transfer into tumor [4] is reported as “transfer well into tumor”, the volume median diameter ([1]; B-2:DOPE:Cholesterol=3:4:3, 15 mol % DMG-PEG2000, NaCl concentration of 60 mM or below at preparation) is reported as 30-50 nm and the volume median diameter ([1]; B-2:DOPE:Cholesterol=3:4:3, 15 mol % DMG-PEG2000, salt concentration of 500 mM or below at preparation) is reported as at most 100 nm. For the same compound, the PdI ([1]; DexPal-carrying particles) was 0.15 ± 0.01, the volume median diameter [1, 8] was 41.4 ± 0.7 nm·days and the PdI [1, 6] was 0.465. The volume median diameter [1, 7] was 37.6 nm and the carrying rate [5] was 90.6 ± 5.2%.
